Assay results: article PMC7217877, “N-AS-triggered SPMs are direct regulators of microglia in a model of Alzheimer’s disease” (Nature Communications, 2020)
Several values for one entry are separate records, joined by “and”; a condition that tells them apart may be missing. Equal values may be shown once.

What was measured:
COX2 WT = biological target: T1, COX2 WT (Homo sapiens, UniProt P35354); assay: in vitro [14C] acetylation assay of purified COX2; type: biochemical; conditions: purified COX2 + 14C-labelled acetyl donor, 2 h, 37 °C; scintillation counter; replicates; listed as C14 N-AS; in cpm (unit assumed)
T1 construct: His (N); made in house
T1 sequence (P35354 18-604): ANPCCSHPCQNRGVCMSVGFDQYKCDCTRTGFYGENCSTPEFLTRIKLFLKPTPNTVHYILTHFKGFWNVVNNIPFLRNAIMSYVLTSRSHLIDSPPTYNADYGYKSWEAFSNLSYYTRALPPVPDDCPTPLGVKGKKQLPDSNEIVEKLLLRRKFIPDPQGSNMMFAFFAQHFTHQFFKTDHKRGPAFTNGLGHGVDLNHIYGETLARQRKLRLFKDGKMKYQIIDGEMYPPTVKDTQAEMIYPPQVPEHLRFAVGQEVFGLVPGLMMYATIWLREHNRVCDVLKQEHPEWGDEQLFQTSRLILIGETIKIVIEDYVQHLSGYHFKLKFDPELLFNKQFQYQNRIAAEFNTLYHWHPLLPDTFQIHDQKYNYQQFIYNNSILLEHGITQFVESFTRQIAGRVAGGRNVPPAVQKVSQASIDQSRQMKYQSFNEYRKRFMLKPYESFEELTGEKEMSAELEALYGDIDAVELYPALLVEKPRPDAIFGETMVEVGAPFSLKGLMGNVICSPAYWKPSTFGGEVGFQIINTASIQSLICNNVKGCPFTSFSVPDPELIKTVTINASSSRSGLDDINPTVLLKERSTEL

[1] = test system: immortalized human microglia; assay: LM-SPM profile of human microglia (LC-MS/MS, Supplementary Table 3, Fig 6d); type: cell-based; set-up: 15R-LxA4 / RvE1 / RvD1: unit not given here; conditions: for 11-HEPE in human microglia / 11-HETE in human microglia / 13-HDHA in human microglia / 15-HEPE in human microglia / 15-HETE in human microglia / 15R-LXA4 in human microglia / 17-HDHA in human microglia / 18-HEPE in human microglia / PGE3/PGD3 in human microglia / PGH2/PGE2 in human microglia / RvD1 in human microglia / RvE1 in human microglia: mean±s.e.m.; for 15R-LxA4 / RvD1 / RvE1: human microglia, sFig 6d
neuron [2] = assay: western blotting for ac-S565 and total COX2 in primary cells; type: cell-based, C57BL/6 mice; conditions: Ab 10mM + supplement, replicates
neuron [3] = assay: quantification of 15R-LXA4, RvE1, RvD1 in primary cells (LC-MS/MS); type: cell-based, C57BL/6 mice; set-up: unit not given here; conditions: Ab + supplement, replicates
Experimental: Lipid mediators metabololipidomics were performed according to previously described procedures with minor modifications[4],[30]. To confirm the biosynthesis of lipid mediators by recombinant COX2 treated with N-AS or aspirin, 10 U of human recombinant COX2 (Cayman, 60122) was incubated in the presence of 500 μM aspirin (Sigma-Aldrich, A5376) or N-AS (Sigma-Aldrich, 01912) at 37 °C for 30 min. The enzyme was filtered with a Microcon column (Millipore) to remove unreacted aspirin or N-AS and was then resuspended in 0.1 M Tris-HCl (pH 8.0). Next, 500 μM phenol (Sigma-Aldrich) and 1 μM hematin-porcine (Sigma-Aldrich) were added immediately before incubation with 100 μM AA, EPA or DHA (Cayman) at 37 °C for 2 h, respectively. The mixtures were incubated with 30 U of human 5-LOX (Cayman, 60402) containing 2 mM CaCl2 (Sigma-Aldrich), 1 mM ATP (Amresco) and 5 μM 13-HpODE (Cayman) as activators. Also, to validate the importance of residue S565 for N-AS-acetylation of COX2 and production of SPMs, 10 U of the COX2 S565A mutant was used in the above-described method. In addition, to confirm SPM generation in neurons and microglia, these cells were treated with Aβ and sonicated in neuronal and glial culture medium. […] To evaluate the relationship of N-AS and SPM production in microglia, microglia were isolated from WT, APP/PS1, and APP/PS1 treated with N-AS mice at 9 months of age. The microglia were sonicated and resuspended in microglial culture medium. The supernatants were incubated with 100 μM AA, EPA, and DHA (Cayman) at 37 °C for 2 h. A 50 μl aliquot of the mixture from each cell lysate was added to a 250 μl aliquot of 1 ng ml^−1 of 15S-LXA4-d5 (internal standard, Cayman) methanol solution. After vortexing for 10 min and centrifuging at 15,974×g for 5 min, the supernatant was subjected to the analysis of the lipid mediators using an Agilent 6470 Triple Quad LC-MS/MS system (Agilent) coupled to an Agilent 1290 HPLC system. Chromatographic separation was achieved using a Synergi Polar RP (4 μm, 2.0 mm i.d. × 150 mm, Phenomenex). Analytes were eluted with a mobile phase consisting of water: formic acid (100:0.1 v/v) (phase A) and methanol: formic acid (100:0.1 v/v) (phase B) in gradient elution mode for 23 min a flow rate of 0.2 ml min^−1. The elution gradient was as follows: from 0 to 0.1 min the content of phase A was 37% and the content of phase A was decreased to 10% and maintained for 5.5 min. The content of phase A was increased back to 37% at 6.0 min and maintained for 23 min. Quantification was carried out using MRM in negative ionization mode and collision energy of 10–15 eV. The mass transition from Q1 to Q3 is shown in Supplementary Table 2. In this study, the peak areas for all components were automatically integrated using MassHunter B 06.00.
To confirm the generation and roles of N-AS in neurons, cells from E18 C57BL/6 mice were prepared as previously described. Cortices were dissected and then dissociated followed by incubation in papain (Worthington) at 37 °C for 15 min. Neurons were plated on poly-L-lysine-coated coverslips with neuronal culture medium, serum-free Neurobasal medium (Gibco) containing 2% B27 supplements (Gibco), 1 mM Glutamax supplement (Gibco), and 100 U ml^−1 streptomycin/ 100 U ml^−1 penicillin (Gibco) at 37 °C in a humidified atmosphere of 5% CO2. […] Primary astrocyte cultures were prepared from C57BL/6 mice as described previously. In brief, after removal of the meninges, postnatal day 7 (P7) mouse brain tissues were minced and incubated in a rocking water bath at 37 °C for 30 min in the presence of 0.25% trypsin-EDTA (Sigma-Aldrich). Enzyme-digested dissociated cells were triturated with astrocyte-specific medium (DMEM/F12 containing 10% FBS and 1% penicillin-streptomycin) and centrifuged at 155×g for 8 min. The pellet was resuspended in astrocyte-specific medium and passed through a 40-μm cell strainer. […]

With `CCCCCCCCCCCCC/C=C/[C@@H](O)[C@H](CO)NC(C)=O` [N-AS, N-((2S,3R,E)-1,3-Dihydroxyoctadec-4-en-2-yl)acetamide] the “C14 radioactivity of COX2, acetylation assay (Fig 1b)” value (COX2 WT) was 347557 and 414691 and 285538 and 348458 and 418276 and 416508 and 283195, the “11-HEPE in human microglia” value ([1]; Aβ 50 µM + treatment) was 371.7±4.0 ng/ml*106cell and the “11-HETE in human microglia” value ([1]; Aβ 50 µM + treatment) was 148.4±1.9 ng/ml*106cell. For the same compound, the “13-HDHA in human microglia” value ([1]; Aβ 50 µM + treatment) was 133.0±1.8 ng/ml*106cell, the “15-HEPE in human microglia” value ([1]; Aβ 50 µM + treatment) was 237.9±3.7 ng/ml*106cell and the “15-HETE in human microglia” value ([1]; Aβ 50 µM + treatment) was 625.4±1.7 ng/ml*106cell. The “15R-LXA4 in human microglia” value ([1]; Aβ 50 µM + treatment) was 19.8±0.2 ng/ml*106cell, the “17-HDHA in human microglia” value ([1]; Aβ 50 µM + treatment) was 707.6±8.2 ng/ml*106cell and the “18-HEPE in human microglia” value ([1]; Aβ 50 µM + treatment) was 1763.6±30.4 ng/ml*106cell. For the same compound, the “PGE3/PGD3 in human microglia” value ([1]; Aβ 50 µM + treatment) was 132.9±2.0 ng/ml*106cell, the “PGH2/PGE2 in human microglia” value ([1]; Aβ 50 µM + treatment) was 95.7±0.9 ng/ml*106cell and the “RvD1 in human microglia” value ([1]; Aβ 50 µM + treatment) was 2.13±0.02 ng/ml*106cell. For the same compound, the “RvE1 in human microglia” value ([1]; Aβ 50 µM + treatment) was 8.6±0.3 ng/ml*106cell, the “SPM production, in words” value ([1]; Aβ-treated human microglia + N-AS) was “improved SPM production” and the “11-HEPE in human microglia” value ([1]; Control (no Aβ) + treatment) was 451.8±4.6 ng/ml*106cell. The “11-HETE in human microglia” value ([1]; Control (no Aβ) + treatment) was 161.8±0.9 ng/ml*106cell, the “13-HDHA in human microglia” value ([1]; Control (no Aβ) + treatment) was 133.9±2.2 ng/ml*106cell and the “15-HEPE in human microglia” value ([1]; Control (no Aβ) + treatment) was 284.1±4.0 ng/ml*106cell. For the same compound, the “15-HETE in human microglia” value ([1]; Control (no Aβ) + treatment) was 625.5±6.8 ng/ml*106cell, the “15R-LXA4 in human microglia” value ([1]; Control (no Aβ) + treatment) was 28.7±0.3 ng/ml*106cell and the “17-HDHA in human microglia” value ([1]; Control (no Aβ) + treatment) was 633.8±9.2 ng/ml*106cell. For the same compound, the “18-HEPE in human microglia” value ([1]; Control (no Aβ) + treatment) was 1636.9±19.7 ng/ml*106cell, the “PGE3/PGD3 in human microglia” value ([1]; Control (no Aβ) + treatment) was 113.1±1.6 ng/ml*106cell and the “PGH2/PGE2 in human microglia” value ([1]; Control (no Aβ) + treatment) was 105.8±1.1 ng/ml*106cell. For the same compound, the “RvD1 in human microglia” value ([1]; Control (no Aβ) + treatment) was 2.36±0.02 ng/ml*106cell, the “RvE1 in human microglia” value ([1]; Control (no Aβ) + treatment) was 18.5±0.4 ng/ml*106cell and the 15R-LxA4 ([1]; Aβ 50 µM +) was 20.003 and 19.3859 and 19.5943 and 20.5159 and 19.4901 and 20.0551. For the same compound, the RvD1 ([1]; Aβ 50 µM +) was 2.139 and 2.0589 and 2.21 and 2.099 and 2.134 and 2.154, the RvE1 ([1]; Aβ 50 µM +) was 9.835 and 7.339 and 9.039 and 8.587 and 8.189 and 8.813 and the 15R-LxA4 ([1]; Aβ 50 µM -) was 29.0008 and 28.9046 and 27.6099 and 29.7445 and 28.2572 and 28.6772. The RvD1 ([1]; Aβ 50 µM -) was 2.289 and 2.353 and 2.443 and 2.321 and 2.398 and 2.382, the RvE1 ([1]; Aβ 50 µM -) was 19.7237 and 16.8195 and 19.2333 and 18.2716 and 18.0264 and 18.7524 and the “ac-S565, western blotting (Fig 3h)” value (neuron [2]) was 1.382 and 1.374 (2×) and 1.247. For the same compound, the “15R-LxA4 (Fig 3i)” value (neuron [3]) was 3.35 and 3.4991 and 3.7074 and 3.111 and 3.589 and 3.409, the “RvD1 (Fig 3i)” value (neuron [3]) was 0.555 and 0.7676 and 0.6961 and 0.6613 and 0.7318 and 0.6787 and the “RvE1 (Fig 3i)” value (neuron [3]) was 3.2 and 3.853 and 3.712 and 3.527 and 3.7827 and 3.619.
